Drawing on patent publication US20230081426A1, “COMPOUNDS AND METHODS FOR KRAS MODULATION AND INDICATIONS THEREFOR” (Plexxikon Inc., priority 2020, published 2023), this text covers IC50 for 24 compounds.

Assay [1] concerns the target T1, G12D-mutant human KRAS (amino acid residues 1-188) (Homo sapiens, UniProt P01116, G12D).
T1 construct: G12D or G12C-mutant human KRAS (amino acid residues 1-188) with FLAG tag; made in house; host or cells: E. coli
As to the kind of experiment: KRAS Binding Disruption Assay (AlphaScreen; biotinylated KRpep-2d analogue or RAF1-RBD), G12D. The settings on record: KRAS G12D; geometric mean; read-out: KRAS GMean IC50 (uM) MUTATION: G12D. The gist of the method:
(§1)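 Mutant KRAS (5-20 nM) incubated 1 h at 25° C with test compound and 5-20 nM biotinylated KRpep-2d analogue or RAF1-RBD in 20 mM HEPES pH 7.5, 100 mM NaCl, 5 mM MgCl2, 0.01% Tween-20, 0.01% BSA.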
A general note: Bead proximity is the source of the signal in Alpha formats.

Assay [2] deals with T2, G12C-mutant human KRAS (amino acid residues 1-188) (Homo sapiens, UniProt P01116, G12C).
T2 construct: G12D or G12C-mutant human KRAS (amino acid residues 1-188) with FLAG tag; made in house; host or cells: E. coli
T2 sequence (P01116 1-188 isoform P01116-2 G12C): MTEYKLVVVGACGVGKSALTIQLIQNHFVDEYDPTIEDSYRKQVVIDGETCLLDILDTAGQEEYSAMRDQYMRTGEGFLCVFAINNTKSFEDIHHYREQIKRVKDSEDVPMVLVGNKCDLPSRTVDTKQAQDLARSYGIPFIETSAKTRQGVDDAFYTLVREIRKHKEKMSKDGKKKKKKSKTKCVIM
As to the kind of experiment: KRAS Binding Disruption Assay (AlphaScreen; biotinylated KRpep-2d analogue or RAF1-RBD), G12C. Conditions: geometric mean, read-out: KRAS GMean IC50 (uM) MUTATION: G12C. The gist of the method: as §1

By IC50 is commonly meant the concentration that gives 50% inhibition.

T1 sequence (P01116 1-188 isoform P01116-2 G12D): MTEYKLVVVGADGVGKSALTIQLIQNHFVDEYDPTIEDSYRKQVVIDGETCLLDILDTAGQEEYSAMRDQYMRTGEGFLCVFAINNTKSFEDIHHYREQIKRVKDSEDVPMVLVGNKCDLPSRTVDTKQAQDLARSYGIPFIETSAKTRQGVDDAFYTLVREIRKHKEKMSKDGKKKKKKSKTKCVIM

In the case of `Cc1cccc2[nH]nc(-c3ccc4c(N5C[C@H]6CC[C@@H](C5)N6)nc(OC[C@@H]5CCCN5C)nc4c3F)c12` [P-0712, 4-((1R,5S)-3,8-diazabicyclo[3.2.1]octan-3-yl)-8-fluoro-7-(4-methyl-1H-indazol-3-yl)-2-(((S)-1-methylpyrrolidin-2-yl)methoxy)quinazoline], the IC50 in assay [1] and in assay [2] was 10 to 100 µM throughout.

For the compound `Oc1cc(-c2ccc3c(N4C[C@H]5CC[C@@H](C4)N5)nc(OCCN4CCC4)nc3c2F)c2ccccc2c1` [P-0713, 4-(2-(2-(azetidin-1-yl)ethoxy)-4-((1R,5S)-3,8-diazabicyclo[3.2.1]octan-3-yl)-8-fluoroquinazolin-7-yl)naphthalen-2-ol], the values for the IC50 in assay [1] and in assay [2] were 0.0001 to 10 µM and 10 to 100 µM, respectively.

For the compound `Oc1cc(-c2ccc3c(N4C[C@H]5CC[C@@H](C4)N5)nc(OC[C@@H]4CCCN4)nc3c2F)c2ccccc2c1` [P-0714, 4-(4-((1R,5S)-3,8-diazabicyclo[3.2.1]octan-3-yl)-8-fluoro-2-(((S)-pyrrolidin-2-yl)methoxy)quinazolin-7-yl)naphthalen-2-ol], the IC50 in assay [1] was in the range of 0.0001 to 10 µM; in assay [2], 10 to 100 µM.

In the case of `Cc1ncoc1COc1nc(N2C[C@H]3CC[C@@H](C2)N3)c2ccc(-c3cc(O)cc4ccccc34)c(F)c2n1` [P-0715, 4-(4-((1R,5S)-3,8-diazabicyclo[3.2.1]octan-3-yl)-8-fluoro-2-((4-methyloxazol-5-yl)methoxy)quinazolin-7-yl)naphthalen-2-ol], the IC50 in assay [1] and in assay [2] was 10 to 100 µM throughout.

For the compound `Oc1cc(-c2ccc3c(N4C[C@H]5CC[C@@H](C4)N5)nc(OCc4cnco4)nc3c2F)c2ccccc2c1` [P-0716, 4-(4-((1R,5S)-3,8-diazabicyclo[3.2.1]octan-3-yl)-8-fluoro-2-(oxazol-5-ylmethoxy)quinazolin-7-yl)naphthalen-2-ol], the IC50 lay within 0.0001 to 10 µM in assay [1] and 10 to 100 µM in assay [2].

With `CC(=O)NC(C)(C)COc1nc(N2C[C@H]3CC[C@@H](C2)N3)c2ccc(-c3cc(O)cc4ccccc34)c(F)c2n1` [P-0717, N-(1-((4-((1R,5S)-3,8-diazabicyclo[3.2.1]octan-3-yl)-8-fluoro-7-(3-hydroxynaphthalen-1-yl)quinazolin-2-yl)oxy)-2-methylpropan-2-yl)acetamide], the figures for the IC50 in assay [1] and in assay [2] were 0.0001 to 10 µM and 10 to 100 µM, respectively.

With `CC(C)(COc1nc(N2C[C@H]3CC[C@@H](C2)N3)c2ccc(-c3cc(O)cc4ccccc34)c(F)c2n1)NS(C)(=O)=O` [P-0718, N-(1-((4-((1R,5S)-3,8-diazabicyclo[3.2.1]octan-3-yl)-8-fluoro-7-(3-hydroxynaphthalen-1-yl)quinazolin-2-yl)oxy)-2-methylpropan-2-yl)methanesulfonamide], the IC50 lay within 0.0001 to 10 µM in assay [1] and 10 to 100 µM in assay [2].

With `CC(C)(CO)COc1nc(N2C[C@H]3CC[C@@H](C2)N3)c2ccc(-c3cc(O)cc4ccccc34)c(F)c2n1` [P-0719, 4-(4-((1R,5S)-3,8-diazabicyclo[3.2.1]octan-3-yl)-8-fluoro-2-(3-hydroxy-2,2-dimethylpropoxy)quinazolin-7-yl)naphthalen-2-ol], the IC50 in assay [1] and in assay [2] was 0.0001 to 10 µM throughout.

Regarding `COC(C)(C)COc1nc(N2C[C@H]3CC[C@@H](C2)N3)c2ccc(-c3cc(O)cc4ccccc34)c(F)c2n1` [P-0720, 4-(4-((1R,5S)-3,8-diazabicyclo[3.2.1]octan-3-yl)-8-fluoro-2-(2-methoxy-2-methylpropoxy)quinazolin-7-yl)naphthalen-2-ol], the IC50 lay within 0.0001 to 10 µM in assay [1] and 10 to 100 µM in assay [2].

For `Oc1cc(-c2ccc3c(N4C[C@H]5CC[C@@H](C4)N5)nc(OCC4(O)CCCC4)nc3c2F)c2ccccc2c1` [P-0721, 4-(4-((1R,5S)-3,8-diazabicyclo[3.2.1]octan-3-yl)-8-fluoro-2-((1-hydroxycyclopentyl)methoxy)quinazo-lin-7-yl)naphthalen-2-ol], the IC50 in assay [1] lay in the range of 0.0001 to 10 µM; in assay [2], 10 to 100 µM.

On to `Oc1cc(-c2ccc3c(N4C[C@H]5CC[C@@H](C4)N5)nc(OCC4(O)CCC4)nc3c2F)c2ccccc2c1` [P-0722, 4-(4-((1R,5S)-3,8-diazabicyclo[3.2.1]octan-3-yl)-8-fluoro-2-((1-hydroxycyclobutyl)methoxy)quinazolin-7-yl)naphthalen-2-ol], for which the results for the IC50 in assay [1] and in assay [2] were 0.0001 to 10 µM and 10 to 100 µM, respectively.

Take `Fc1c(-c2c[nH]c3cccc(C(F)(F)F)c23)ccc2c(N3C[C@H]4CC[C@@H](C3)N4)nc(OCC34CCCN3CCC4)nc12` [P-0723, 4-((1R,5S)-3,8-diazabicyclo[3.2.1]octan-3-yl)-8-fluoro-2-((tetrahydro-1H-pyrrolizin-7a(5H)-yl)methoxy)-7-(4-(trifluoromethyl)-1H-indol-3-yl)quinazoline]: the IC50 in assay [1] and in assay [2] was 0.0001 to 10 µM in each case.

As to `CN1CCC[C@H]1COc1nc(N2C[C@H]3CC[C@@H](C2)N3)c2cc(F)c(-c3n[nH]c4ccc(F)cc34)c(F)c2n1` [P-0724, 4-((1R,5S)-3,8-diazabicyclo[3.2.1]octan-3-yl)-6,8-difluoro-7-(5-fluoro-1H-indazol-3-yl)-2-(((S)-1-methylpyrrolidin-2-yl)methoxy)quinazoline], the IC50 in assay [1] was 10 to 100 µM; in assay [2] it was 100 to 1000 µM.

For the compound `CN1CCC[C@H]1COc1nc(N2C[C@H]3CC[C@@H](C2)N3)c2cc(F)c(-c3n[nH]c4ccccc34)c(F)c2n1` [P-0725, 4-((1R,5S)-3,8-diazabicyclo[3.2.1]octan-3-yl)-6,8-difluoro-7-(1H-indazol-3-yl)-2-(((S)-1-methylpyrrolidin-2-yl)methoxy)quinazoline], the values for the IC50 in assay [1] and in assay [2] were 10 to 100 µM and 100 to 1000 µM, respectively.

Turning to `CN1CCC[C@H]1COc1nc(N2C[C@H]3CC[C@@H](C2)N3)c2cc(F)c(-c3c[nH]c4ccc(F)cc34)c(F)c2n1` [P-0726, 4-((1R,5S)-3,8-diazabicyclo[3.2.1]octan-3-yl)-6,8-difluoro-7-(5-fluoro-1H-indol-3-yl)-2-(((S)-1-methylpyrrolidin-2-yl)methoxy)quinazoline], the IC50 was 0.0001 to 10 µM in assay [1] and 10 to 100 µM in assay [2].

In the case of `COc1cccc2ncnc(-c3ccc4c(N5C[C@H]6CC[C@@H](C5)N6)nc(OC[C@@H]5CCCN5C)nc4c3F)c12` [P-0727, 4′-((1R,5S)-3,8-diazabicyclo[3.2.1]octan-3-yl)-8′-fluoro-5-methoxy-2′-(((S)-1-methylpyrrolidin-2-yl)methoxy)-4,7′-biquinazoline], the 50% inhibitory concentration (IC50) in assay [1] and in assay [2] was 100 to 1000 µM in each case.

Turning to `CN1CCC[C@H]1COc1nc(N2C[C@H]3CC[C@@H](C2)N3)c2ccc(-c3nccc4cccc(Cl)c34)c(F)c2n1` [P-0728, 4-((1R,5S)-3,8-diazabicyclo[3.2.1]octan-3-yl)-7-(8-chloroisoquinolin-1-yl)-8-fluoro-2-(((S)-1-methylpyrrolidin-2-yl)methoxy)quinazoline], the IC50 was 10 to 100 µM in assay [1] and 100 to 1000 µM in assay [2].

Consider `CN1CCC[C@H]1COc1nc(N2C[C@H]3CC[C@@H](C2)N3)c2ccc(-c3c[nH]c4cccc(C(F)(F)F)c34)cc2n1` [P-0729, 4-((1R,5S)-3,8-diazabicyclo[3.2.1]octan-3-yl)-2-(((S)-1-methylpyrrolidin-2-yl)methoxy)-7-(4-(trifluoromethyl)-1H-indol-3-yl)quinazoline], for which the IC50 in assay [1] lay in the range of 0.0001 to 10 µM; in assay [2], 10 to 100 µM.

In the case of `Fc1cc2c(N3C[C@H]4CC[C@@H](C3)N4)nc(OCC34CCCN3CCC4)nc2c(F)c1-c1c[nH]c2cccc(C3CC3)c12` [P-0730, 4-((1R,5S)-3,8-diazabicyclo[3.2.1]octan-3-yl)-7-(4-cyclopropyl-1H-indol-3-yl)-6,8-difluoro-2-((tetrahydro-1H-pyrrolizin-7a(5H)-yl)methoxy)quinazoline], the IC50 in assay [1] and in assay [2] was 0.0001 to 10 µM in each case.

Take `CCc1cccc2[nH]cc(-c3c(F)cc4c(N5C[C@H]6CC[C@@H](C5)N6)nc(OCC56CCCN5CCC6)nc4c3F)c12` [P-0731, 4-((1R,5S)-3,8-diazabicyclo[3.2.1]octan-3-yl)-7-(4-ethyl-1H-indol-3-yl)-6,8-difluoro-2-((tetrahydro-1H-pyrrolizin-7a(5H)-yl)methoxy)quinazoline]: the IC50 in assay [1] and in assay [2] was 0.0001 to 10 µM in each case.

As for `NC(=O)COc1nc(N2C[C@H]3CC[C@@H](C2)N3)c2ccc(-c3cc(O)cc4ccccc34)c(F)c2n1` [P-0732, 2-((4-((1R,5S)-3,8-diazabicyclo[3.2.1]octan-3-yl)-8-fluoro-7-(3-hydroxynaphthalen-1-yl)quinazolin-2-yl)oxy)acetamide], the half-maximal inhibitory concentration (IC50) in assay [1] lay within 0.0001 to 10 µM; in assay [2], 10 to 100 µM.

For `CNC(=O)COc1nc(N2C[C@H]3CC[C@@H](C2)N3)c2ccc(-c3cc(O)cc4ccccc34)c(F)c2n1` [P-0733, 2-((4-((1R,5S)-3,8-diazabicyclo[3.2.1]octan-3-yl)-8-fluoro-7-(3-hydroxynaphthalen-1-yl)quinazolin-2-yl)oxy)-N-methylacetamide], the IC50 was 0.0001 to 10 µM in assay [1] and 10 to 100 µM in assay [2].

As for `Oc1cc(-c2ccc3c(N4C[C@H]5CC[C@@H](C4)N5)nc(OCC4(O)CC4)nc3c2F)c2ccccc2c1` [P-0734, 4-(4-((1R,5S)-3,8-diazabicyclo[3.2.1]octan-3-yl)-8-fluoro-2-((1-hydroxycyclopropyl)methoxy)quinazo-lin-7-yl)naphthalen-2-ol], the IC50 in assay [1] lay within 0.0001 to 10 µM; in assay [2] it was 10 to 100 µM.

Regarding `CC(C)(COc1nc(N2C[C@H]3CC[C@@H](C2)N3)c2ccc(-c3cc(O)cc4ccccc34)c(F)c2n1)NC(=O)OCc1ccccc1` [P-0735, benzyl (1-((4-((1R,5S)-3,8-diazabicyclo[3.2.1]octan-3-yl)-8-fluoro-7-(3-hydroxynaphthalen-1-yl)quinazolin-2-yl)oxy)-2-methylpropan-2-yl)carbamate], the IC50 in assay [1] lay in the range of 0.0001 to 10 µM; in assay [2], 100 to 1000 µM.
